Patent publication US12319655B2, “RAF kinase inhibitors and methods of use thereof” (Deciphera Pharmaceuticals, LLC, priority 2021, dated 2025)

What was measured:
H2405 cells = experiment: H2405 Cell Proliferation Assay (1); format: cell-based; details: Homo sapiens, NCI-H2405
Outline: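 Viability was read by resazurin reduction (ex 540 nm, em 600 nm; 5-6 h with 40 μL of 440 μM stock) after 67-72 h compound exposure at 37 °C.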

[1] = target: B-Raf (V600E) (SEQ. ID NO: 4) kinase (Homo sapiens (Human), UniProt P15056, V600E); experiment: Biochemical Assay for B-Raf (V600E) (1); details: Table J, BRAF V600E, biochemical assay (1); read-out: BRAF VE (1)
Outline: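 Serially diluted compounds tested against 0.03 nM enzyme with 30.1 nM MEK substrate and 1 mM ATP (Tris pH 7.5, 15 mM MgCl2), ATP use coupled to NADH loss via PK/LDH. A340 monitored continuously 6 h, 30 °C; IC50 fitted (four-parameter) from the 3–4 h rate versus no-compound and known-inhibitor controls.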

Chain of B-Raf (V600E) (SEQ. ID NO: 4) kinase (P15056 416-766 V600E): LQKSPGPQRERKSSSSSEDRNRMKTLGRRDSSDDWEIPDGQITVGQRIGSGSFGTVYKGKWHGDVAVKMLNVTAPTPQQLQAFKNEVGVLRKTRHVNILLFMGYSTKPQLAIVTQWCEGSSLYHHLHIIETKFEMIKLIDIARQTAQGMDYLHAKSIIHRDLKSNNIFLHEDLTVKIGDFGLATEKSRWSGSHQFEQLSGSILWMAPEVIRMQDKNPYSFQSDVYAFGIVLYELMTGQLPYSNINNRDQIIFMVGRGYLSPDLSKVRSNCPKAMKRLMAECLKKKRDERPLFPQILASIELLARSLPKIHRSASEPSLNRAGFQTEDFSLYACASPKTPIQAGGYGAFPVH

| Compound | IC50 (H2405 cells) | IC50 [1] |
| --- | --- | --- |
| COC(=O)Nc1cc(-c2cnnc(-c3cc(NC(=O)c4cn(C(C)C)nn4)ccc3C)c2)ccn1 [Example 409] | 1000 to 10000 nM | 500 to 1000 nM |
| Cc1ncc(NC(=O)c2ccnc(C(C)(C)C#N)c2)cc1-c1cncc(-c2cc(NC(=O)C3CC3)ncn2)c1 [Example 410] | 100 to 500 nM | ≤ 100 nM |
| COC(=O)Nc1cc(-c2cccc(-c3cc(NC(=O)Cn4cc(C(C)C)nn4)cnc3C)c2)ccn1 [Example 415] | – | 1000 to 10000 nM |
| CNC(=O)c1cc(-c2cc(-c3cc(NC(=O)c4ccnc(C(C)(C)F)c4)ccc3C)nc(C)n2)ccn1 [Example 428] | 100 to 500 nM | ≤ 100 nM |
| Cc1ccc(NC(=O)c2ccnc(C(C)(C)C#N)c2)cc1-c1cncc(-c2cc(NC(=O)C(C)C)ncn2)c1 [Example 420] | ≤ 100 nM | ≤ 100 nM |
| Cc1ccc(NC(=O)c2ccnc(C(C)(F)F)c2)cc1-c1cncc(-c2cc(NC(=O)C3CC3)ncn2)c1 [Example 419] | ≤ 100 nM | ≤ 100 nM |
| COc1ccc(NC(=O)c2ccnc(C(C)(C)C#N)c2)cc1-c1cccc(-c2cc(NC(=O)C3CC3)ncn2)c1 [Example 438] | 100 to 500 nM | ≤ 100 nM |
| Cc1ccc(NC(=O)c2ccnc(C(C)(C)F)c2)cc1-c1cncc(-c2ccnc(NC(=O)C3CC3)c2)c1 [Example 417] | ≤ 100 nM | ≤ 100 nM |
| COC(=O)Nc1cc(-c2cc(-c3cc(NC(=O)c4ccnc(C(C)(C)F)c4)ccc3C)nc(C)n2)ccn1 [Example 416] | 100 to 500 nM | ≤ 100 nM |
| CNC(=O)c1cc(-c2cc(-c3cc(NC(=O)c4ccnc(C(C)(C)C#N)c4)ccc3OC)ccn2)ccn1 [Example 437] | 100 to 500 nM | ≤ 100 nM |
| Cc1ccc(NC(=O)c2cn(C(C)C)nn2)cc1-c1cncc(-c2cc(NC(=O)C3CC3)ncn2)c1 [Example 412] | ≤ 100 nM | ≤ 100 nM |
| Cc1ccc(NC(=O)c2cc(C3CC3)n(C)n2)cc1-c1nccc(-c2ccnc(NC(=O)C3CC3)c2)n1 [Example 436] | ≤ 100 nM | ≤ 100 nM |
| COC(=O)Nc1cc(-c2cccc(-c3cc(NC(=O)c4ccnc(C(C)(C)F)c4)cnc3C)c2)ncn1 [Example 404] | 1000 to 10000 nM | ≤ 100 nM |
| Cc1cc(F)c(NC(=O)c2ccnc(C(C)(C)F)c2)cc1-c1cncc(-c2cc(NC(=O)C3CC3)ncn2)c1 [Example 423] | – | ≤ 100 nM |
| Cc1cc(F)c(NC(=O)c2ccnc(C(C)(C)C#N)c2)cc1-c1cncc(-c2cc(NC(=O)C3CC3)ncn2)c1 [Example 424] | – | ≤ 100 nM |
| Cc1ccc(NC(=O)c2ccnc(C(C)C)c2)cc1-c1cncc(-c2cc(NC(=O)C3CC3)ncn2)c1 [Example 434] | – | ≤ 100 nM |

Further lines, results first:

| IC50 (H2405 cells) | IC50 [1] | Compound |
| --- | --- | --- |
| 100 to 500 nM | ≤ 100 nM | Cc1ccc(NC(=O)c2cnn(C3CC3)c2)cc1-c1cncc(-c2cc(NC(=O)C3CC3)ncn2)c1 [Example 430] |
| ≤ 100 nM | ≤ 100 nM | Cc1ccc(NC(=O)c2ccnc(C(F)F)c2)cc1-c1cncc(-c2cc(NC(=O)C3CC3)ncn2)c1 [Example 429] |
| ≤ 100 nM | ≤ 100 nM | COC(=O)Nc1cc(-c2cncc(-c3cc(NC(=O)c4ccnc(C5(C#N)CC5)c4)ccc3C)c2)ncn1 [Example 405] |
| ≤ 100 nM | ≤ 100 nM | Cc1ccc(NC(=O)c2cc(C(C)(C)C)on2)cc1-c1cncc(-c2cc(NC(=O)C3CC3)ncn2)c1 [Example 431] |
| ≤ 100 nM | ≤ 100 nM | Cc1ccc(NC(=O)c2cc(C3CC3)on2)cc1-c1cncc(-c2cc(NC(=O)C3CC3)ncn2)c1 [Example 421] |
| 100 to 500 nM | ≤ 100 nM | CNC(=O)c1cc(-c2nccc(-c3cc(NC(=O)c4ccnc(C(C)(C)F)c4)c(F)cc3C)n2)ccn1 [Example 427] |
| – | ≤ 100 nM | Cc1ccc(NC(=O)c2ccnc(C(C)(C)F)c2)cc1-c1cncc(-c2ccnc3c2CC(=O)N3)c1 [Example 432] |
| ≤ 100 nM | ≤ 100 nM | COC(=O)Nc1cc(-c2cncc(-c3cc(NC(=O)c4ccnc(C(C)(C)C#N)c4)ccc3C)c2)ncn1 [Example 414] |
| – | ≤ 100 nM | Cc1ncc(NC(=O)c2ccnc(C(C)(C)F)c2)cc1-c1cncc(-c2ccnc(NC(=O)C3CC3)c2)c1 [Example 433] |
